11 compounds from ChEMBL document CHEMBL1201862, “PubChem BioAssay data set” (2004) can be followed below.

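Cultured in 96-well plates, cells were exposed to test compound for 48 hours across five concentrations. GI50 marks 50% less growth.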 Calls of active or inactive are those of the source. Rule as the data show it: active = GI50 up to about 1.1 µM and inactive = higher.

Some test systems named below: NCI-H522; HOP-62; NCI-H226; A549; HOP-92; SF-268; RXF 393; COLO 205; M14; K562; SNB-19; EKVX; DU-145; U-251; SW-620; SN12C; MOLT-4; SK-MEL-28; OVCAR-3; HCC 2998.
Assay in all cases: DTP human tumour cell line panel, 48 h

As for `C#CCn1c(=O)c(I)cn(/C(=C/C(=O)OCC)C(=O)OCC)c1=O`, the GI50 was 0.649 µM (active) in the assay on NCI-H522; 17.5 µM (inactive) with HOP-62; 25.7 µM (inactive) in the assay on NCI-H226; 18 µM (inactive) with A549; 1.75 µM (inactive) with HOP-92; 9.44 µM (inactive) with SF-268. Further, the GI50 was 3.61 µM (inactive) with RXF 393; 0.667 µM (active) in the assay on COLO 205; 1.78 µM (inactive) with M14; 0.659 µM (active) in the assay on K562; 18.3 µM (inactive) in the assay on SNB-19; 2.94 µM (inactive) with EKVX. Also, the GI50 in the assay with DU-145 is 10 µM (inactive); in the assay with U-251, 16.6 µM (inactive); in the assay with SW-620, 1.18 µM (inactive); in the assay on SN12C, 15.9 µM (inactive); in the assay on MOLT-4 it was < 0.0195 µM (active); in the assay on SK-MEL-28, 8 µM (inactive). Moreover, the GI50 in the assay with OVCAR-3 is 1.78 µM (inactive).
As to `COC(=O)CNC(=O)C(Cc1ccccc1)NC(=O)c1ccc(-c2ccc(Cl)cc2Cl)o1` (stereo not drawn), the GI50 in the assay with NCI-H522 is 13.4 µM (inactive); in the assay on HOP-62 it was 26.8 µM (inactive); in the assay with NCI-H226, 48.4 µM (inactive); in the assay with A549 it was 25 µM (inactive); with HOP-92, 12.4 µM (inactive); in the assay with SF-268, 19.8 µM (inactive). The GI50 was 18.4 µM (inactive) in the assay with RXF 393; 14.6 µM (inactive) in the assay on COLO 205; 30.9 µM (inactive) with M14; 21.3 µM (inactive) with K562; 35.3 µM (inactive) with SNB-19; 20.3 µM (inactive) in the assay with EKVX. For the same compound, the GI50 in the assay on DU-145 is 37.6 µM (inactive); with U-251, 28.5 µM (inactive); in the assay with SW-620, 34.2 µM (inactive); in the assay with SN12C it was 26.3 µM (inactive); in the assay with MOLT-4 it was 14.3 µM (inactive); with SK-MEL-28, 43.8 µM (inactive). Also, in the assay with OVCAR-3, the GI50 was 22.4 µM (inactive).
On to `O=C(O)CCC1(CCC(=O)O)CCCCCCCCC(CCC(=O)O)(CCC(=O)O)C(=O)C1=O`, for which the GI50 with NCI-H522, in the assay with HOP-62, in the assay on NCI-H226, in the assay on HCC 2998, with A549 and in the assay with HOP-92 was > 100 µM (inactive) throughout. Also, the GI50 in the assay on SF-268, with COLO 205, in the assay on M14, in the assay with K562, with SNB-19 and in the assay with EKVX was > 100 µM (inactive) in each case. Moreover, the GI50 in the assay on DU-145, in the assay on U-251, in the assay with SW-620, with SN12C, in the assay with SK-MEL-28 and in the assay with OVCAR-3 was > 100 µM (inactive) each time.
Turning to `CC(=O)OCC1OC(n2c3c(cc(C#N)c2=S)CCCCCC3)C(OC(C)=O)C(OC(C)=O)C1OC(C)=O` (stereo not drawn), the GI50 with NCI-H522 is 76.4 µM (inactive); in the assay on HOP-62, > 100 µM (inactive); with NCI-H226, > 100 µM (inactive); in the assay on HCC 2998, 27.5 µM (inactive); in the assay on A549, > 100 µM (inactive); in the assay with HOP-92 it was > 100 µM (inactive). The GI50 is > 100 µM (inactive) in the assay with SF-268; > 100 µM (inactive) with RXF 393; 84.1 µM (inactive) in the assay on COLO 205; > 100 µM (inactive) with M14; 32.1 µM (inactive) in the assay with K562; > 100 µM (inactive) in the assay with SNB-19. Further, the GI50 was > 100 µM (inactive) in the assay on DU-145; 91 µM (inactive) in the assay with U-251; > 100 µM (inactive) in the assay with SN12C; 26.1 µM (inactive) in the assay with MOLT-4; > 100 µM (inactive) with SK-MEL-28; > 100 µM (inactive) in the assay on OVCAR-3.
With `CC(=O)OC[C@]1(C(=O)C(O)c2ccoc2)[C@H](C)CC[C@@]23COC(=O)C2=CCC[C@@H]31` (stereo partly drawn), the GI50 in the assay on NCI-H522, in the assay with NCI-H226, with HCC 2998, in the assay on A549, in the assay with HOP-92 and in the assay with SF-268 was > 10 µM (inactive) in each case. The GI50 with RXF 393, in the assay with COLO 205, with M14, in the assay on SNB-19, in the assay on EKVX and in the assay with DU-145 was > 10 µM (inactive) each time. In addition, the GI50 in the assay with U-251, with SW-620, with SN12C, in the assay on MOLT-4 and in the assay on OVCAR-3 was > 10 µM (inactive) in each case.
With `COC(=O)C12CCC(C(F)(F)C1=O)C2(C)C` (stereo not drawn), the GI50 in the assay with NCI-H522, in the assay with HOP-62, in the assay on NCI-H226, with HCC 2998, in the assay with A549 and in the assay on HOP-92 was > 100 µM (inactive) each time. For the same compound, the GI50 with SF-268, with RXF 393, in the assay with COLO 205, in the assay on M14, with SNB-19 and with DU-145 was > 100 µM (inactive) throughout. Further, the GI50 with U-251, with SW-620, in the assay with SN12C, in the assay with MOLT-4, in the assay on SK-MEL-28 and with OVCAR-3 was > 100 µM (inactive) in each case.
`CC1C2CC(CC2N)C1(C)C` (stereo not drawn): the GI50 in the assay on NCI-H522, in the assay on HOP-62, with NCI-H226, with HCC 2998, in the assay on A549 and with HOP-92 was > 100 µM (inactive) throughout. Further, the GI50 in the assay on SF-268, in the assay with COLO 205, in the assay on M14, with K562, with SNB-19 and with EKVX was > 100 µM (inactive) each time. Moreover, the GI50 in the assay with DU-145, in the assay on U-251, in the assay with SW-620, with SN12C, in the assay with MOLT-4 and in the assay with SK-MEL-28 was > 100 µM (inactive) in each case. In addition, the GI50 in the assay on OVCAR-3 is > 100 µM (inactive).
For `O=C1Nc2cccc(Cl)c2/C1=C\c1cccnc1`, the GI50 in the assay on NCI-H522 is 9.66 µM (inactive); with HOP-62 it was 6.12 µM (inactive); with HCC 2998, 2.15 µM (inactive); in the assay on A549 it was 11.1 µM (inactive); in the assay with HOP-92, 27.7 µM (inactive); with SF-268 it was 7.24 µM (inactive). Also, the GI50 was 2.83 µM (inactive) in the assay on RXF 393; 3.32 µM (inactive) in the assay with COLO 205; 6.61 µM (inactive) with M14; 5.85 µM (inactive) in the assay on K562; 3.7 µM (inactive) in the assay with SNB-19; 17.6 µM (inactive) with EKVX. The GI50 in the assay with DU-145 is 6.37 µM (inactive); in the assay with U-251, 6.47 µM (inactive); in the assay on SW-620, 9.57 µM (inactive); with SN12C it was 7.82 µM (inactive); in the assay on MOLT-4, 4.23 µM (inactive); with SK-MEL-28, 16.4 µM (inactive). Further, the GI50 with OVCAR-3 was 5.64 µM (inactive).
Consider `C(=N\c1ccc2c(c1)Cc1ccccc1-2)/c1ccccn1`, for which the GI50 was 26.7 µM (inactive) in the assay with NCI-H522; > 100 µM (inactive) in the assay with HOP-62; > 100 µM (inactive) with NCI-H226; > 100 µM (inactive) with A549; > 100 µM (inactive) with HOP-92; 76.4 µM (inactive) in the assay on SF-268. For the same compound, the GI50 with RXF 393 is > 100 µM (inactive); with M14, > 100 µM (inactive); with K562 it was 30.9 µM (inactive); with SNB-19, > 100 µM (inactive); in the assay with EKVX, 28.8 µM (inactive); with DU-145, 88.3 µM (inactive). Further, the GI50 with U-251 is 63.1 µM (inactive); in the assay with SW-620, 44.6 µM (inactive); in the assay on SN12C, 28.4 µM (inactive); in the assay on MOLT-4 it was 23 µM (inactive); in the assay on SK-MEL-28, > 100 µM (inactive); in the assay with OVCAR-3 it was 61.7 µM (inactive).
For the compound `Fc1cccc(F)c1C1SCc2nc3cc(Cl)ccc3n21` (stereo not drawn), the GI50 in the assay with NCI-H522 was 39.7 µM (inactive); in the assay on HOP-62, > 100 µM (inactive); in the assay on HCC 2998 it was 22.7 µM (inactive); in the assay with A549 it was 31.3 µM (inactive); in the assay with HOP-92 it was 36.6 µM (inactive); in the assay with SF-268 it was > 100 µM (inactive). In addition, the GI50 is 48.8 µM (inactive) with RXF 393; 17.9 µM (inactive) with COLO 205; 31 µM (inactive) in the assay on M14; 35.1 µM (inactive) in the assay on K562; 92.5 µM (inactive) in the assay on SNB-19; 36.6 µM (inactive) in the assay with EKVX. Moreover, the GI50 in the assay with DU-145 was 68.5 µM (inactive); in the assay with U-251, 22 µM (inactive); with SW-620, 38.7 µM (inactive); in the assay on SN12C, 56.5 µM (inactive); in the assay with MOLT-4, 14 µM (inactive); in the assay with SK-MEL-28, 50.8 µM (inactive). The GI50 with OVCAR-3 was 46 µM (inactive).
Consider `CCN(CC)CCCOc1cc2c(cc1OC)C(=O)N1CCC[C@H]1C=N2`, for which the GI50 in the assay with NCI-H522 was 11.4 µM (inactive); with HOP-62, 23.3 µM (inactive); in the assay with NCI-H226 it was 24.4 µM (inactive); in the assay on A549, > 100 µM (inactive); in the assay on HOP-92, 24.6 µM (inactive); in the assay on SF-268 it was 41.4 µM (inactive). The GI50 is 25.8 µM (inactive) in the assay on RXF 393; 19.8 µM (inactive) in the assay on COLO 205; 30.2 µM (inactive) in the assay with M14; 37.5 µM (inactive) in the assay with K562; 49.1 µM (inactive) in the assay with SNB-19; 68.4 µM (inactive) with EKVX. The GI50 was 35.2 µM (inactive) with DU-145; 26.4 µM (inactive) with U-251; 17.2 µM (inactive) with SW-620; 42.3 µM (inactive) with SN12C; 19.5 µM (inactive) in the assay on MOLT-4; 18.1 µM (inactive) in the assay on SK-MEL-28. Besides, in the assay with OVCAR-3, the GI50 is 24.2 µM (inactive).

What is called GI50 is the concentration that inhibits growth by half.
